{
  "source": "ChEMBL document CHEMBL1773038",
  "about": "“In silico and in vitro validation of serine hydroxymethyltransferase as a chemotherapeutic target of the antifolate drug pemetrexed” (Eur J Med Chem, 2011)",
  "key": {"[1]": {"target": "T1, Serine hydroxymethyltransferase, cytosolic (Homo sapiens, UniProt P34896)", "T1 sequence (P34896 whole entry)": "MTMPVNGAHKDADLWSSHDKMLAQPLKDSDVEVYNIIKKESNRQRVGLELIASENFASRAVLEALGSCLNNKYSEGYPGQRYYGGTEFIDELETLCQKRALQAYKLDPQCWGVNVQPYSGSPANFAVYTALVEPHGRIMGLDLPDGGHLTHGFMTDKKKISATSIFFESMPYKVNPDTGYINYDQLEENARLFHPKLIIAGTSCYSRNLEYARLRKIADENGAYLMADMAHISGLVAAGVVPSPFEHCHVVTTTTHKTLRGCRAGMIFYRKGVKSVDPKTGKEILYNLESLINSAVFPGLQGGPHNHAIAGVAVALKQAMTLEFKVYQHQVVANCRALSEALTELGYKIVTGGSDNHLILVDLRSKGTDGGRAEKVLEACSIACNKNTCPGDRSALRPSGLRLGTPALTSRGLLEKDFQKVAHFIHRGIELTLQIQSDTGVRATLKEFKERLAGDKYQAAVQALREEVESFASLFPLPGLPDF", "assay": "Binding affinity to human recombinant Serine hydroxymethyltransferase, cytosolic by isothermal titration calorimetry"}, "[2]": {"target": "T1, Serine hydroxymethyltransferase, cytosolic", "assay": "Competitive inhibition of human recombinant Serine hydroxymethyltransferase, cytosolic by spectrophotometry"}, "[3]": {"target": "T1, Serine hydroxymethyltransferase, cytosolic", "assay": "Mixed-type inhibition of human recombinant Serine hydroxymethyltransferase, cytosolic measured by Y-axes intercepts of mixed-type inhibition against compound concentration by spectrophotometry"}, "[4]": {"target": "T1, Serine hydroxymethyltransferase, cytosolic", "assay": "Inhibition of human recombinant Serine hydroxymethyltransferase, cytosolic measured by slope intercepts of mixed-type inhibition against compound concentration by spectrophotometry"}},
  "data": [
    {"molecule": "Nc1nc2[nH]cc(CCc3ccc(C(=O)N[C@@H](CCC(=O)O)C(=O)O)cc3)c2c(=O)[nH]1", "note": "[PEMETREXED]", "values": [
      {"measurement": "Kd", "setting": "[1]", "value": 16.9, "unit": "µM"},
      {"measurement": "Ki", "setting": "[2]", "value": 19.1, "unit": "µM"},
      {"measurement": "Ki", "setting": "[3]", "value": 186, "unit": "µM"},
      {"measurement": "Ki", "setting": "[4]", "value": 33, "unit": "µM"}
    ]}
  ]
}
